From ChEMBL document CHEMBL3991601, “The target landscape of clinical kinase drugs” (Science, 2017)
Activity calls are given as the source filed them. Cut-off read from the data, not from the text of the source, for most assays here: actives have a measured Kd and inactives only a lower limit.

Experiments:
[1] = molecular target: AP2-associated protein kinase 1 (Homo sapiens, UniProt Q2M2I8)
[2] = molecular target: T1, Bone morphogenetic protein receptor type-2 (Homo sapiens, UniProt Q13873)
T1 sequence (Q13873 whole entry): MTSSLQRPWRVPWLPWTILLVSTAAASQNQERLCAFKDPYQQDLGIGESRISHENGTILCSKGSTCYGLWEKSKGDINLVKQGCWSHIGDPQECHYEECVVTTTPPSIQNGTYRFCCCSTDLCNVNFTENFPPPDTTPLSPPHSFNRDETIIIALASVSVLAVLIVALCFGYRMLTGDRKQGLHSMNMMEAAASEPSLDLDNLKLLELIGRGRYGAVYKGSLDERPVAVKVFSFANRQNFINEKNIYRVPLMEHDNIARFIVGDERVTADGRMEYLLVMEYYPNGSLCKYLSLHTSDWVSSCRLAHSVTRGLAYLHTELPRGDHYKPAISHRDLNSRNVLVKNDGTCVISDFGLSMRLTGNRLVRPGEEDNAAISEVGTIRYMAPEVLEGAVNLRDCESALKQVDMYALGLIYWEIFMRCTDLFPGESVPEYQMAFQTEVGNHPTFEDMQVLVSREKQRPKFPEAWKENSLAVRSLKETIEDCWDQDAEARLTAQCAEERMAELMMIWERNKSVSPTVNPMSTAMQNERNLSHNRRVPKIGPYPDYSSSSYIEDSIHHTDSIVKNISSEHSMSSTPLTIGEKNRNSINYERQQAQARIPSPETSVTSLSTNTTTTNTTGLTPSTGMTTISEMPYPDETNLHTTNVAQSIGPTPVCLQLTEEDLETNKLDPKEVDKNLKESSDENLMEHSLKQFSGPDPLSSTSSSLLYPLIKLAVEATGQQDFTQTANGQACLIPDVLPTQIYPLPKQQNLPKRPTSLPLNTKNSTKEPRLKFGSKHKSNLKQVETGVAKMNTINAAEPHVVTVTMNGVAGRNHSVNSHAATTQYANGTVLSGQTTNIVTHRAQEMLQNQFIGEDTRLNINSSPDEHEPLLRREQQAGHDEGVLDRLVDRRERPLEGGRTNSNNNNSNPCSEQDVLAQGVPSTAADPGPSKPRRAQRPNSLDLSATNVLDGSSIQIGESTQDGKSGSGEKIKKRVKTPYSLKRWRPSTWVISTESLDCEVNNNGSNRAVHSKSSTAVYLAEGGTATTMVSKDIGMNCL

[3] = molecular target: Serine/threonine-protein kinase/endoribonuclease IRE2 (Homo sapiens, UniProt Q76MJ5)
[4] = molecular target: Tyrosine-protein kinase Fyn (Homo sapiens, UniProt P06241)
[5] = molecular target: Interleukin-1 receptor-associated kinase 1 (Homo sapiens, UniProt P51617)
[6] = molecular target: T2, Mitogen-activated protein kinase kinase kinase 5 (Homo sapiens, UniProt Q99683)
T2 sequence (Q99683 whole entry): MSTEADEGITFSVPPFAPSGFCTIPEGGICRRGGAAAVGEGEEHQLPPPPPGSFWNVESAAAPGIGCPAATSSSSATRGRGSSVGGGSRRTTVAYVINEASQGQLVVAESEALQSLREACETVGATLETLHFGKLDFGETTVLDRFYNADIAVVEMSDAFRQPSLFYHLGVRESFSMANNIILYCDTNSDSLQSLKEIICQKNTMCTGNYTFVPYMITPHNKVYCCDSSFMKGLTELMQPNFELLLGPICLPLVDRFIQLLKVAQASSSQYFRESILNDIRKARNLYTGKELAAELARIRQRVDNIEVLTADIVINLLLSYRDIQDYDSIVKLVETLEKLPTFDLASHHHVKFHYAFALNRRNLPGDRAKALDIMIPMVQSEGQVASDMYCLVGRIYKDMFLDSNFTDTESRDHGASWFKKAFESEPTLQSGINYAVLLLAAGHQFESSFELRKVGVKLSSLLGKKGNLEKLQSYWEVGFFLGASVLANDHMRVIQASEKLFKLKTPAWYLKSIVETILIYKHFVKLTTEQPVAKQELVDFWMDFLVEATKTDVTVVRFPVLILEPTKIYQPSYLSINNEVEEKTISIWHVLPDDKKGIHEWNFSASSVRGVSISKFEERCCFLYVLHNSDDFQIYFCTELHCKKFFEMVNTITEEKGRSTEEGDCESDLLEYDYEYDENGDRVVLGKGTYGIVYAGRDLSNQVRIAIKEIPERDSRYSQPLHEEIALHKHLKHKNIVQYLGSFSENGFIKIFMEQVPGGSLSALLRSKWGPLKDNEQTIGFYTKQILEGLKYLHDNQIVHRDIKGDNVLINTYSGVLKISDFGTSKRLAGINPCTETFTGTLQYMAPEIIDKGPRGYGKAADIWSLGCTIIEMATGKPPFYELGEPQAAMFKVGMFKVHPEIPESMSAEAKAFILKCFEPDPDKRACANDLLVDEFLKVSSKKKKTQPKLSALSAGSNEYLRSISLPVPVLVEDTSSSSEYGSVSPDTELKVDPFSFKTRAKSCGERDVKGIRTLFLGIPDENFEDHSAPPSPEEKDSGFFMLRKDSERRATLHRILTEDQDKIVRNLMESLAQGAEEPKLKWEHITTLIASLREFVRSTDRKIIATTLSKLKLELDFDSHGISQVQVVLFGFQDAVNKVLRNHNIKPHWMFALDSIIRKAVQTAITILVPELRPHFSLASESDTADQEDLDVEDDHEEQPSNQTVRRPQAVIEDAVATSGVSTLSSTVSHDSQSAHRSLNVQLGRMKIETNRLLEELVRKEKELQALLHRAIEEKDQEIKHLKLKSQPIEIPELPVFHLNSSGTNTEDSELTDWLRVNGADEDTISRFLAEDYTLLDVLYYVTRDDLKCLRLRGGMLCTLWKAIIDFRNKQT

[7] = molecular target: cAMP-dependent protein kinase catalytic subunit alpha (Homo sapiens, UniProt P17612)
[8] = molecular target: Elongation factor Tu, mitochondrial (Homo sapiens, UniProt P49411)
Note: in the data inactive means no Kd found up to 30 µM.

Sequence of Tyrosine-protein kinase Fyn (P06241 whole entry): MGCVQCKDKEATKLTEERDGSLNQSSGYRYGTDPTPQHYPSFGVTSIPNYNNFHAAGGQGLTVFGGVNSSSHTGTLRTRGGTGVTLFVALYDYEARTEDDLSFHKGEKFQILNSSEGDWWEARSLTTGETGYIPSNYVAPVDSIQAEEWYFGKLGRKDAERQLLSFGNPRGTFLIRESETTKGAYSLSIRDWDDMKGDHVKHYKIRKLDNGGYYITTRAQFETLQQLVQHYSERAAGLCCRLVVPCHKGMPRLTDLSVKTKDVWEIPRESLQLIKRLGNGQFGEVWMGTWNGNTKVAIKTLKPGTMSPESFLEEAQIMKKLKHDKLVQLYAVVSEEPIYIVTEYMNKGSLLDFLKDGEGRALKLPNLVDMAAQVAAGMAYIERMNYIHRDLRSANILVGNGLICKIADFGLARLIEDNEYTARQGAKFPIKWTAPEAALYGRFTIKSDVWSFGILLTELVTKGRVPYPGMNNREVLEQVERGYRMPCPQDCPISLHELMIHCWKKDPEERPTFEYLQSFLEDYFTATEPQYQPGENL
Sequence of Interleukin-1 receptor-associated kinase 1 (P51617 whole entry): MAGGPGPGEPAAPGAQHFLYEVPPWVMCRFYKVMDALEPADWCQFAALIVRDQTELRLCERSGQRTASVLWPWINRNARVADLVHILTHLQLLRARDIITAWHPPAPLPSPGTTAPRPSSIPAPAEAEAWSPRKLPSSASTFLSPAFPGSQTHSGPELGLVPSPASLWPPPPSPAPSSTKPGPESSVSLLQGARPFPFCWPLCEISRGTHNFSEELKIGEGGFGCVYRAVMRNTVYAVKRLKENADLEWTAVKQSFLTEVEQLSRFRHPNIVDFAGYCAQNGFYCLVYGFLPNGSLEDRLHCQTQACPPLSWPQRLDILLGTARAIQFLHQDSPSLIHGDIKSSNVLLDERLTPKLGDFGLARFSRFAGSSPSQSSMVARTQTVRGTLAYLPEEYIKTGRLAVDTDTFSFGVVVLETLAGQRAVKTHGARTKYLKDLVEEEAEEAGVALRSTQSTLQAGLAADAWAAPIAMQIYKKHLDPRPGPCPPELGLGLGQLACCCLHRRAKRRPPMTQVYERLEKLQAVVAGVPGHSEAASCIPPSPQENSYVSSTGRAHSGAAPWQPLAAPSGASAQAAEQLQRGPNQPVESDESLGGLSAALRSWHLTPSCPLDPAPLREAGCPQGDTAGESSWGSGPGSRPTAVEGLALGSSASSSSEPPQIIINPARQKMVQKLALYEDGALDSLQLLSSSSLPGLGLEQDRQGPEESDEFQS
Sequence of Serine/threonine-protein kinase/endoribonuclease IRE2 (Q76MJ5 whole entry): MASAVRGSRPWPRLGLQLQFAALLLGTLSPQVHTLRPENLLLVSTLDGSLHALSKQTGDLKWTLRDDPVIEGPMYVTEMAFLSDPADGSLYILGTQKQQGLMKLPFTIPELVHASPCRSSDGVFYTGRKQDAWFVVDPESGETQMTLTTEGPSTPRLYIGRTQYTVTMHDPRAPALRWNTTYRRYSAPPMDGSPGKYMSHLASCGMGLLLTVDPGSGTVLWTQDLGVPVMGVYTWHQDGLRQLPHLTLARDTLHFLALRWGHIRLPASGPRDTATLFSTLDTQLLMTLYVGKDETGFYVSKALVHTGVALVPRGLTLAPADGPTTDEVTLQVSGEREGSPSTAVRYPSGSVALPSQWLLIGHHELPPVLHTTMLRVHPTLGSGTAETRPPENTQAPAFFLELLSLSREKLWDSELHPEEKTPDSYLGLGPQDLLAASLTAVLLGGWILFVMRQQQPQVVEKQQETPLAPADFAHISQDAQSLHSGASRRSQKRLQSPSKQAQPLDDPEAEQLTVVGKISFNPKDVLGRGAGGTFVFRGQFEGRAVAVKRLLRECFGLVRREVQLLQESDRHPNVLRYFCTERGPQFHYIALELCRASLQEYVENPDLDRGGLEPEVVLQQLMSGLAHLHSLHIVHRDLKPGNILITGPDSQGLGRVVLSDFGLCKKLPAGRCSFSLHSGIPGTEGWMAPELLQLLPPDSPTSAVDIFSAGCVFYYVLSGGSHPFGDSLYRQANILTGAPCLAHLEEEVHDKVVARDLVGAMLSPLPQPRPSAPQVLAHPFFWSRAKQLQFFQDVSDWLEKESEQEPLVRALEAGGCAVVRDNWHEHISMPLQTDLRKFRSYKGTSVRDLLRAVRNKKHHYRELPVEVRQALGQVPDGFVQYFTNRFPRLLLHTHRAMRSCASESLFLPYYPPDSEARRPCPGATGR
Sequence of AP2-associated protein kinase 1 (Q2M2I8 whole entry): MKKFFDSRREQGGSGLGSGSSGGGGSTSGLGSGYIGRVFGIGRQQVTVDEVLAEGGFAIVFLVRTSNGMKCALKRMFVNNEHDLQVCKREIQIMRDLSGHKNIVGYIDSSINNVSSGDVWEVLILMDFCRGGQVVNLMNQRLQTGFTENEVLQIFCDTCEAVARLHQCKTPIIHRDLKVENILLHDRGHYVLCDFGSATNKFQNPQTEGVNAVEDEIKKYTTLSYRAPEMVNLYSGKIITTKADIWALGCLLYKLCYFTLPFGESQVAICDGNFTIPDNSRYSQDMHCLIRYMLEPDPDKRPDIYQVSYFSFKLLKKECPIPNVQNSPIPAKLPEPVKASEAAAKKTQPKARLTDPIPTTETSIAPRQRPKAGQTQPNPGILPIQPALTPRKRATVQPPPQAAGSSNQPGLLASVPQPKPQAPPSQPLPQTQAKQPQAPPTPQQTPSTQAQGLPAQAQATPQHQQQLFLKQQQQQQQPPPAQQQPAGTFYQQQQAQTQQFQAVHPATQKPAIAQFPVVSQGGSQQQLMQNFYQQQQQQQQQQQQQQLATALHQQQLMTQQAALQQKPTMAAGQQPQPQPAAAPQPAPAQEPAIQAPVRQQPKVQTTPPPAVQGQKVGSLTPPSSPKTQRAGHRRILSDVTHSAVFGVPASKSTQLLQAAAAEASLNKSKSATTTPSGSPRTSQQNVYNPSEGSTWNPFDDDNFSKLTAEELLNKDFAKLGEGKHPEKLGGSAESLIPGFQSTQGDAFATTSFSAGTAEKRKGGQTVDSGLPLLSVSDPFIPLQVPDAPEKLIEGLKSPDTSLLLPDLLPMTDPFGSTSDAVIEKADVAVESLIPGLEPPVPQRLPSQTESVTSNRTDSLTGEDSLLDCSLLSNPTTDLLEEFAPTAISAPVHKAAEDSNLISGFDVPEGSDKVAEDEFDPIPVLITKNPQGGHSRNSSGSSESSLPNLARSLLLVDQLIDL

| Kd [1] | Kd [2] | Kd [3] | Kd [4] | Kd [5] | Kd [6] | Kd [7] | Kd [8] | Compound |
| --- | --- | --- | --- | --- | --- | --- | --- | --- |
| > 30 µM (inactive) | > 30 µM (inactive) | > 30 µM (inactive) | > 30 µM (inactive) | > 30 µM (inactive) | > 30 µM (inactive) | > 30 µM (inactive) | > 30 µM (inactive) | CC(C)(O)CC(=O)NCCn1ccc2ncnc(Nc3ccc(Oc4cccc(C(F)(F)F)c4)c(Cl)c3)c21 [TAK-285] |
| > 30 µM (inactive) | > 30 µM (inactive) | > 30 µM (inactive) | > 30 µM (inactive) | > 30 µM (inactive) | > 30 µM (inactive) | > 30 µM (inactive) | > 30 µM (inactive) | COc1cc2nccc(Oc3ccc(NC(=O)C4(C(=O)Nc5ccc(F)cc5)CC4)cc3)c2cc1OC [CABOZANTINIB] |
| > 30 µM (inactive) | > 30 µM (inactive) | > 30 µM (inactive) | > 30 µM (inactive) | > 30 µM (inactive) | > 30 µM (inactive) | > 30 µM (inactive) | > 30 µM (inactive) | Cn1c(=O)c(F)c(Nc2ccc(I)cc2F)c2c(=O)n(C[C@@H](O)CO)cnc21 [TAK-733] |
| 1.41 µM (active) | > 30 µM (inactive) | > 30 µM (inactive) | 0.583 µM (active) | > 30 µM (inactive) | > 30 µM (inactive) | 0.916 µM (active) | > 30 µM (inactive) | COc1cccc(Nc2ncnn3ccc(CN4CC[C@@H](N)[C@H](O)C4)c23)c1 [BMS-690514] |
| 1.07 µM (active) | > 30 µM (inactive) | > 30 µM (inactive) | > 30 µM (inactive) | > 30 µM (inactive) | > 30 µM (inactive) | > 30 µM (inactive) | > 30 µM (inactive) | COc1cc2ncnc(Nc3ccc(O)cc3)c2cc1OC [WHI-P131] |
| > 30 µM (inactive) | > 30 µM (inactive) | > 30 µM (inactive) | > 30 µM (inactive) | > 30 µM (inactive) | > 30 µM (inactive) | > 30 µM (inactive) | > 30 µM (inactive) | O[C@H]1CC[C@H](Nc2ncc3nc(Nc4c(F)cc(F)cc4F)n([C@H]4CCOC4)c3n2)CC1 [TANZISERTIB] |
| > 30 µM (inactive) | > 30 µM (inactive) | > 30 µM (inactive) | > 30 µM (inactive) | > 30 µM (inactive) | > 30 µM (inactive) | > 30 µM (inactive) | > 30 µM (inactive) | Cc1ccc(C(=O)Nc2ccc(Oc3cc4cnn(C)c4cc3-c3cn[nH]c3)c(F)c2)c(=O)n1-c1ccc(F)cc1 [MERESTINIB] |
| > 30 µM (inactive) | > 30 µM (inactive) | > 30 µM (inactive) | > 30 µM (inactive) | > 30 µM (inactive) | > 30 µM (inactive) | > 30 µM (inactive) | > 30 µM (inactive) | Cc1cc(-c2cc(OC(=O)c3ccccc3)ccc2Cl)cc2nnc(Nc3ccc(OCCN4CCCC4)cc3)nc12 [TG100-801] |
| > 30 µM (inactive) | 2.1 µM | > 30 µM (inactive) | > 30 µM (inactive) | > 30 µM (inactive) | > 30 µM (inactive) | > 30 µM (inactive) | > 30 µM (inactive) | COc1cccc2cc(-c3nc([C@H]4CC[C@H](C(=O)O)CC4)n4ncnc(N)c34)[nH]c12 [OSI-027] |
| 2.44 µM (active) | > 30 µM (inactive) | > 30 µM (inactive) | > 30 µM (inactive) | > 30 µM (inactive) | > 30 µM (inactive) | > 30 µM (inactive) | > 30 µM (inactive) | Cc1cc(C(=O)Nc2cc(Oc3ccc4nc(NC(=O)C5CC5)cn4n3)ccc2C)n(C)n1 [TAK-593] |

Second part, the molecule before the results:

| Compound | Kd [1] | Kd [2] | Kd [3] | Kd [4] | Kd [5] | Kd [6] | Kd [7] | Kd [8] |
| --- | --- | --- | --- | --- | --- | --- | --- | --- |
| CNC(=O)c1cccc(-c2ccc3c(N4CCOC[C@@H]4C)nc(N4CCOC[C@@H]4C)nc3n2)c1 [VISTUSERTIB] | > 30 µM (inactive) | > 30 µM (inactive) | > 30 µM (inactive) | > 30 µM (inactive) | > 30 µM (inactive) | > 30 µM (inactive) | > 30 µM (inactive) | > 30 µM (inactive) |
| COc1cc2ncnc3c2cc1OCCCCCN(C)Cc1ccc(Br)cc1N3 [JNJ-26483327] | > 30 µM (inactive) | > 30 µM (inactive) | > 30 µM (inactive) | > 30 µM (inactive) | > 30 µM (inactive) | > 30 µM (inactive) | > 30 µM (inactive) | > 30 µM (inactive) |
| C=CCN(/C=C1/C(=O)O[C@H](COC)[C@@]2(C)C1=C(O)C(=O)C1=C2[C@H](OC(C)=O)C[C@]2(C)C(=O)CC[C@@H]12)CC=C [SONOLISIB] | > 30 µM (inactive) | > 30 µM (inactive) | > 30 µM (inactive) | > 30 µM (inactive) | > 30 µM (inactive) | > 30 µM (inactive) | > 30 µM (inactive) | > 30 µM (inactive) |
| CCc1nc(C(N)=O)c(Nc2ccc(N3CCC(N4CCN(C)CC4)CC3)c(OC)c2)nc1NC1CCOCC1 [GILTERITINIB] | 0.025 µM (active) | > 30 µM (inactive) | > 30 µM (inactive) | > 30 µM (inactive) | > 30 µM (inactive) | > 30 µM (inactive) | > 30 µM (inactive) | 0.464 µM |
| Cn1cc(-c2[nH]c3cc(NC(=O)[C@H](N)C4CCCCC4)cc4c3c2C=NNC4=O)cn1 | 0.002 µM (active) | > 30 µM (inactive) | > 30 µM (inactive) | 1.34 µM (active) | > 30 µM (inactive) | > 30 µM (inactive) | > 30 µM (inactive) | > 30 µM (inactive) |
| C=CC(=O)Nc1cc(Nc2nccc(-c3cn(C)c4ccccc34)n2)c(OC)cc1N(C)CCN(C)C [OSIMERTINIB] | > 30 µM (inactive) | > 30 µM (inactive) | > 30 µM (inactive) | > 30 µM (inactive) | > 30 µM (inactive) | > 30 µM (inactive) | > 30 µM (inactive) | > 30 µM (inactive) |
| CNC(=O)c1ccc(Nc2ncc(C(F)(F)F)c(NCc3nccnc3N(C)S(C)(=O)=O)n2)cc1 [DEFACTINIB] | > 30 µM (inactive) | > 30 µM (inactive) | > 30 µM (inactive) | > 30 µM (inactive) | > 30 µM (inactive) | > 30 µM (inactive) | > 30 µM (inactive) | > 30 µM (inactive) |
